In patent US11963975B2, “Therapeutic targets for facioscapulohumeral muscular dystrophy” (University of Massachusetts, priority 2016, dated 2024):
“And” between values parts separate entries of the source, which are not always exact repeats. Equal values may be shown once.

Columns and labels:
[1] = test system: skeletal myocytes from an FSHD1 patient (05Abic); test: shRNA knockdown screen in terminally differentiated FSHD myocytes, gene expression by qRT-PCR; assay type: cell-based, human; conditions: harvested 4 days after second infection, Mock = 1
Procedure: A screen to identify genes involved in DUX4 expression (e.g., when the expression of these genes is reduced in FSHD muscle cells, DUX4 expression also decreases) was performed. Briefly, primary differentiated myocytes derived from subjects having FSHD were treated with shRNA targeting candidate genes and the expression level of pathogenic DUX4-fl mRNA was quantified. The expression levels of other myogenic regulators (e.g., Myogenin, MyoD, MyHD) and other targets (e.g., FRG1, UTRN, and 18S) were also quantified to assess indirect effects of DUX4 knockdown. A sample screening protocol is shown below:
• 1. Expand low passage primary FSHD myoblasts. • 2. Plate into 6-well plates. • 3. Allow cells to reach confluence and differentiate (approximately 48 hours). • 4. Infect cells with lentiviral shRNA construct and incubate for 24 hours. • 5. Re-infect cells with lentiviral shRNA construct. • 6. Harvest cells 4 days after second infection. • 7. Extract RNA from cells and assay for expression level of DUX4-fl and other genes of interest.
(§1) Myogenic cultures derived from biceps muscles of unrelated FSHD1 patients (05Abic, 17Abic, and 18Abic) were grown in Ham's F-10 medium supplemented with 20% FBS (Hyclone), 0.5% chick embryo extract, 1% antibiotics & antimycotics, and 1.2 mM CaCl2. 293T packaging cells were grown in DMEM+10% FBS+0.1% […]. For shRNA knockdown experiments, 293T cells were transfected with lentiviral packaging plasmid (pCMV-dR8.91), envelope plasmid (VSV-G), and SIGMA MISSION shRNA expression plasmids. Lentiviral supernatants were harvested, aliquoted, and frozen at −80° C. FSHD1 skeletal myoblasts were seeded in collagen-coated 6-well plates (for gene expression analysis) or 10-cm plates (for ChIP) and grown to confluence, then allowed to self-differentiate in growth medium for ˜48 h. Cells were subjected to two rounds of infection. Briefly, lentiviral supernatants+8 μg/ml polybrene were added to cultures and the plates were incubated for 15 min at 37° C., then wrapped well with parafilm before centrifuging for 30 min at 1100 g (32° C.). Following centrifugation, the viral supernatants were replaced with growth medium. Cells were maintained in growth medium and harvested 4 d after the last round of infection. For dCas9-KRAB infections, 293T cells were transfected with lentiviral packaging plasmid (pCMV-dR8.91), envelope plasmid (VSV-G), and either dCas9-KRAB expression plasmid (#50919) or sgRNA expression plasmid using the TransIT-LT1 transfection reagent. Lentiviral supernatants were harvested at […] from 72-108 h post-transfection. FSHD1 skeletal myoblasts were seeded in collagen-coated 6-well plates and grown to ˜80% confluency, then subjected to four serial infections over two days. Cells were allowed to recover for ˜8 h in growth medium prior to the next round of infection. Following the last infection, these self-differentiated cultures were maintained in growth medium for 72 h prior to harvesting.
Total RNAs were extracted using TRIzol (Invitrogen) and purified using the RNeasy Mini kit (Qiagen) after on-column DNase I digestion. Total RNA (2 μg) was used for cDNA synthesis using Superscript III Reverse Transcriptase (Invitrogen), and 200 ng of cDNA were used for qPCR analysis.
The D4Z4 macrosatellite array that encodes DUX4 is normally under strong epigenetic repression in adult somatic cells. […] Thirty-six candidate activators of DUX4 fl were investigated as potential drug targets (Table 3). These candidates include transcriptional regulators, chromatin remodelers, and histone modifying enzymes. For the initial screen, skeletal myocytes from an FSHD1 patient (05Abic) which express consistent and relatively high levels of DUX4 fl when terminally differentiated were used. Using lentivirus-encoded shRNAs, each candidate was knocked down in terminally differentiated cultures, then cells were harvested four days later and assessed for expression of DUX4 fl and other genes.

[2] = test system: FSHD myocytes (05Abic, 18Abic, and 17Abic); test: shRNA knockdown across FSHD cohorts, DUX4-fl by qRT-PCR; assay type: cell-based, human; conditions: FIG. 11F
Text: FIGS. 11A-11F show shRNA knockdown of epigenetic regulators reduces expression of DUX4-fl in FSHD myocytes. Differentiated FSHD myocytes were infected in two serial rounds with shRNAs to ASH1L (FIG. 11A), BAZ1A (FIG. 11B), BRD2 (FIG. 11C), KDM4C (FIG. 11D), SMARCA5 (FIG. 11E), or a scrambled control. Four days later, cells were harvested for analysis of the full-length DUX4 isoform (DUX4-fl), Myogenin (Myog), MyoD, Myosin heavy chain 1 (MyHC), FRG1, Utrophin (Utr), and 18S gene expression by qRT-PCR. […] In all panels, relative mRNA expression for mock or control-infected cells is set to 1. Data are plotted as the mean+SD value of technical replicates.
as §1
Total RNAs were extracted using TRIzol (Invitrogen) and purified using the RNeasy Mini kit (Qiagen) after on-column DNase I digestion. […]

[3] = test system: primary FSHD muscle cells (09Abic); test: JQ1 treatment time course, gene expression; assay type: cell-based, human
Text: (§2) DUX4 expression is induced during myogenic differentiation, and blocking or slowing down this process, as the case with JQ1, give the appearance of inhibiting DUX4 expression, when in fact it is merely altering the kinetics of myoginc differentiation. Importantly, these genes are misregulated by JQ1 in both FSHD and healthy human skeletal muscle myoblasts (HSMM) (FIG. 17). Therefore, JQ1 is an example of a non-specific small molecule and not appropriate for use as an FSHD therapeutic.

[4] = test system: healthy human skeletal muscle myoblasts (HSMM); test: JQ1 treatment of healthy myoblasts, myogenic gene expression; assay type: cell-based; conditions: FIG. 17
Text: as §2

[5] = test system: primary myoblasts isolated from FSHD1-affected and FSHD-asymptomatic patients; test: small molecule treatment of primary myoblasts, DUX4 expression; assay type: cell-based, human; conditions: alone, or in combination; FIG. 15
Text: Trichostatin A (TSA) is a histone deacetylase inhibitor, 5-aza-2′-deoxycytidine (5′ADC) is a DNA methylation inhibitor and chaetocin (CH) is a histone methyltransferase inhibitor.

| Molecule | 18S relative gene expression [1] | D4-fl relative gene expression [1] | FRG1 relative gene expression [1] | MyHC relative gene expression [1] | MyoD relative gene expression [1] | Myog relative gene expression [1] | Utr relative gene expression [1] | DUX4-fl expression (in words) [2] | DUX4 expression (in words) ([3]; 09Abic) | expression of downstream genes TRIM43 and ZSCAN4 (in words) ([3]; 09Abic) | expression of myogenic regulatory genes myogenin (Myog), myoD, myosin heavy chain (MyHC), and myostatin (Myost) (in words) ([3]; time course of treatment, FIG. 16) | myogenic genes (Myog, myoD, MyHC) (in words) [4] | DUX4 expression (in words) [5] |
| --- | --- | --- | --- | --- | --- | --- | --- | --- | --- | --- | --- | --- | --- |
| PJ196: shRNA targeting SMARCA5; SEQ ID NO: 8 (guide CCGGCCGGGCAAATAGATTCGAGTACTCGAGTACTCGAATCTATTTGCCCGGTTTTT) | 0.9807 and 1.048 | 0.1085 and 0.1967 | 0.8974 and 0.9209 | 0.469 and 0.5926 | 0.722 and 0.9103 | 0.9247 and 0.9293 | 0.8261 and 1.231 | reduce DUX4-fl expression | – | – | – | – | – |
| PJ11: shRNA targeting BRD2; SEQ ID NO: 10 (guide CCGGCCCTTTGCTGTGACACTTCTTCTCGAGAAGAAGTGTCACAGCAAAGGGTTTTT) | 1.112 | 0.124 | 1.25 | 0.7342 | 0.9277 | 1.026 | 0.6067 | reduce DUX4-fl expression | – | – | – | – | – |
| PJ75: shRNA targeting KDM4C; SEQ ID NO: 3 (CCGGGCCCAAGTCTTGGTATGCTATCTCGAGATAGCATACCAAGACTTGGGCTTTTT) | 0.9781 | 0.1812 | 0.7766 | 0.9826 | 1.048 | 1.318 | 1.018 | – | – | – | – | – | – |
| Cc1sc2c(c1C)C(c1ccc(Cl)cc1)=N[C@@H](CC(=O)OC(C)(C)C)c1nnc(C)n1-2 [JQ1] | – | – | – | – | – | – | – | – | appears to inhibit | appears to inhibit | inhibiting the expression | misregulated | – |
| PJ3: shRNA targeting ASH1L; SEQ ID NO: 6 (guide CCGGCGTACTTTGTTTATCCCAGAACTCGAGTTCTGGGATAAACAAAGTACGTTTTT) | 1.185 | 0.2434 | 1.141 | 1.341 | 0.9895 | 0.7218 | 1.128 | – | – | – | – | – | – |
| CC(/C=C/C(=O)NO)=C\[C@@H](C)C(=O)c1ccc(N(C)C)cc1 [Trichostatin A] | – | – | – | – | – | – | – | – | – | – | – | – | affect DUX4 expression |
| PJ74: shRNA targeting KDM4C; SEQ ID NO: 2 (guide CCGGGCAGAGAGTAATGGTGTGTTACTCGAGTAACACACCATTACTCTCTGCTTTTT) | 1.129 | 0.08801 | 1.211 | 0.7642 | 0.7621 | 1.81 | 0.7121 | reduce DUX4-fl expression | – | – | – | – | – |
| PJ1: shRNA targeting ASH1L; SEQ ID NO: 4 (guide CCGGCGACATAAACTTGACATCTTTCTCGAGAAAGATGTCAAGTTTATGTCGTTTTT) | 1.372 | 0.3399 | 1.051 | 1.066 | 0.7238 | 1.795 | 0.6994 | reduce DUX4-fl expression | – | – | – | – | – |
| PJ195: shRNA targeting SMARCA5; SEQ ID NO: 7 (guide CCGGGTTCTTTAATTTACGGGTCTTCTCGAGAAGACCCGTAAATTAAAGAACTTTTT) | 0.9905 | 0.168 | 0.9865 | 0.7803 | 0.8981 | 0.8003 | 1.024 | – | – | – | – | – | – |
| PJ2: shRNA targeting ASH1L; SEQ ID NO: 5 (guide CCGGCCTGCCAAATACCATAAGAAACTCGAGTTTCTTATGGTATTTGGCAGGTTTTT) | 1.311 | 0.1371 | 1.172 | 0.7221 | 0.8503 | 0.8845 | 0.815 | – | – | – | – | – | – |
| Nc1ncn([C@H]2C[C@H](O)[C@@H](CO)O2)c(=O)n1 [5-aza-2′-deoxycytidine] | – | – | – | – | – | – | – | – | – | – | – | – | affect DUX4 expression |
| PJ12: shRNA targeting BRD2; SEQ ID NO: 11 (guide CCGGGCCCTCTTTACGTGATTCAAACTCGAGTTTGAATCACGTAAAGAGGGCTTTTT) | 1.099 | 0.1127 | 1.178 | 0.7927 | 0.904 | 1.088 | 0.6755 | – | – | – | – | – | – |
| PJ152: shRNA targeting BAZ1A; SEQ ID NO: 9 (guide CCGGGCGATGAAGAAGAAGGTCAAACTCGAGTTTGACCTTCTTCTTCATCGCTTTTTG) | 1.312 | 0.1892 | 0.9047 | 0.8503 | 0.991 | 1.318 | 0.954 | – | – | – | – | – | – |
| PJ73: shRNA targeting KDM4C; SEQ ID NO: 1 (guide CCGGGCCTCTGACATGCGATTTGAACTCGAGTTCAAATCGCATGTCAGAGGCTTTTT) | 1.253 | 0.1101 | 1.043 | 0.7968 | 0.9045 | 1.338 | 0.6393 | – | – | – | – | – | – |
